From the NIST ThermoML archive (doi:10.1021/je501033z)
“And” between values parts separate entries of the source, which are not always exact repeats. Equal values may be shown once. Numbers after ± are expanded uncertainties.

Details: Liquid, Closed cell (Static) method

O [water]
Details | vapor or sublimation pressure
279.48 K | 0.953 ± 0.031 kPa
286.16 K | 1.508 ± 0.031 kPa
291.39 K | 2.094 ± 0.032 kPa
293.14 K | 2.337 ± 0.032 kPa
296.31 K | 2.839 ± 0.032 kPa
296.32 K | 2.834 ± 0.032 kPa
298.81 K | 3.288 ± 0.032 kPa
301.37 K | 3.827 ± 0.033 kPa
303.57 K | 4.36 ± 0.033 kPa
307.73 K | 5.507 ± 0.034 kPa
308.26 K | 5.666 ± 0.034 kPa
312.87 K | 7.275 ± 0.035 kPa
313.07 K | 7.345 ± 0.035 kPa
314.62 K | 7.977 ± 0.036 kPa
318.13 K | 9.585 ± 0.038 kPa and 9.578 ± 0.038 kPa
322.99 K | 12.26 ± 0.04 kPa
323.1 K | 12.32 ± 0.04 kPa
323.17 K | 12.36 ± 0.04 kPa
328.14 K | 15.75 ± 0.045 kPa
328.88 K | 16.31 ± 0.045 kPa

CO [methanol]
Details | vapor or sublimation pressure [kPa]
274.15 K | 4.252 ± 0.04
278.15 K | 5.501 ± 0.043
283.15 K | 7.411 ± 0.047
293.15 K | 13 ± 0.061
303.15 K | 21.86 ± 0.086
313.15 K | 35.43 ± 0.13
323.15 K | 55.54 ± 0.19
333.15 K | 84.93 ± 0.29
343.15 K | 125.74 ± 8
353.15 K | 181.56 ± 8
363.15 K | 256.27 ± 8
373.15 K | 354.35 ± 8.1
383.15 K | 480.82 ± 8.1
393.15 K | 641.27 ± 8.2
403.15 K | 841.83 ± 8.4
413.15 K | 1089.2 ± 8.6
